# According to ChEMBL document CHEMBL4033735, “A potent and selective natriuretic peptide receptor-3 blocker 11-mer peptide created by hybridization of musclin and atrial natriuretic peptide” (Bioorg Med Chem Lett, 2017):
# The source made the active and inactive calls. No cut-off for these calls is given here. Bridge positions count the residues as written; N and C are the ends. Square brackets hold non-standard residues; d marks the D form. Peptide text beside a SMILES is read from it. Cha = N[C@@H](CC1CCCCC1)C(=O)O
# Tests used:
# [1] = target: T1, Atrial natriuretic peptide receptor 3 (Homo sapiens, UniProt P17342); experiment: Displacement of [125I]-human ANP from His-tagged and Fc fragment containing human NPR-3 extracellular domain expressed in FreeStyle 293 cells incubated for 2 hrs by top count method; type: cell-based
# T1 sequence (P17342 whole entry): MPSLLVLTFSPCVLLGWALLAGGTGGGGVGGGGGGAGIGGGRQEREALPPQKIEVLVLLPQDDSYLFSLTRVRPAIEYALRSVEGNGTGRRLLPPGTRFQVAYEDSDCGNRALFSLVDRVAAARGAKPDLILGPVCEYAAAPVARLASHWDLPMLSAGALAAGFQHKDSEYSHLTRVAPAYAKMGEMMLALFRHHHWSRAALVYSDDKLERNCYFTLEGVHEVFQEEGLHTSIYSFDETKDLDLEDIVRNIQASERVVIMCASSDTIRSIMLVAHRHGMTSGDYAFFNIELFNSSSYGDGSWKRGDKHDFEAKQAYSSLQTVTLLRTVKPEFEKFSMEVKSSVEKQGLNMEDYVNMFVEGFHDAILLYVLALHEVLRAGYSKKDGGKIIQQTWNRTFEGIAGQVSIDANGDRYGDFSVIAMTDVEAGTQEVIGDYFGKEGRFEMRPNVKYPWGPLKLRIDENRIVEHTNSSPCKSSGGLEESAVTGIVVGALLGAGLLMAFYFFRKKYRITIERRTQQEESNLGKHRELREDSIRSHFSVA
# [2] = Stability in C57BL/6J mouse serum assessed as residual parent compound remaining at 1 mM after 30 mins at 37 degC by HPLC method; type: ADME, cell-free; settings: read-out: Stability
# [3] = Stability in C57BL/6J mouse serum assessed as residual parent compound remaining at 1 mM after 60 mins at 37 degC by HPLC method; type: ADME, cell-free; settings: read-out: Stability
# [4] = target: T2, Atrial natriuretic peptide receptor 1 (Homo sapiens, UniProt P16066); experiment: Displacement of [125I]-human ANP from human NPR-1 incubated for 2 hrs by top count method
# T2 sequence (P16066 whole entry): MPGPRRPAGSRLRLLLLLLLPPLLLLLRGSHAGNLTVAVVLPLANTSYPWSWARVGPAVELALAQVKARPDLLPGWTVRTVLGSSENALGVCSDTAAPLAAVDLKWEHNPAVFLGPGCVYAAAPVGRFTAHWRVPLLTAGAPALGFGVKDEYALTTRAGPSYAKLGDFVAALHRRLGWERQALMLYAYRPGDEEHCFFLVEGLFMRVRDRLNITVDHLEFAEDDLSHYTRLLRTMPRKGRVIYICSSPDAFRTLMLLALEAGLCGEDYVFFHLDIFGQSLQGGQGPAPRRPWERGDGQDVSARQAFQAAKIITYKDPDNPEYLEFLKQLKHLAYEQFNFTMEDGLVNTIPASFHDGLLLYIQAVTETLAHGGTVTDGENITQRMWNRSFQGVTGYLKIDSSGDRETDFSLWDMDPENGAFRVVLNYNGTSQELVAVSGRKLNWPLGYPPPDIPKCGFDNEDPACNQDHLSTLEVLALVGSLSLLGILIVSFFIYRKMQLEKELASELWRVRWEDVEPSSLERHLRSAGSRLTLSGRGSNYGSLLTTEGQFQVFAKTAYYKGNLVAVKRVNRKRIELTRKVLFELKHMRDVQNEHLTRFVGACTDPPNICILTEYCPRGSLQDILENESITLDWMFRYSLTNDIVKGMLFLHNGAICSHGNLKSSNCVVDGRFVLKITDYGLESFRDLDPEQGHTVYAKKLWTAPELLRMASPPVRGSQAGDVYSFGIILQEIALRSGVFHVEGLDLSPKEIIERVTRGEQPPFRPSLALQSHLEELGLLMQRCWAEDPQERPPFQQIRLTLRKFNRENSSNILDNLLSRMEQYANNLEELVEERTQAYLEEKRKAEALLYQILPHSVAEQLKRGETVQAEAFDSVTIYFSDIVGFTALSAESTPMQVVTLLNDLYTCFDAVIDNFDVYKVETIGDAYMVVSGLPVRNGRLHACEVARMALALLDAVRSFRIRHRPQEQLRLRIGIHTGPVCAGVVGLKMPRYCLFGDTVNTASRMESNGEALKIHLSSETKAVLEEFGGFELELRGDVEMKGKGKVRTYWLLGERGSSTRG
# [5] = Stability in 10% C57BL/6J mouse serum/phosphate-buffered saline assessed as residual parent compound remaining at 1 mM after 30 mins at 37 degC by HPLC method; type: ADME, cell-free; settings: 10% mouse serum in phosphate-buffered saline, read-out: Stability
# [6] = Stability in 10% C57BL/6J mouse serum/phosphate-buffered saline assessed as residual parent compound remaining at 1 mM after 60 mins at 37 degC by HPLC method; type: ADME, cell-free; settings: 10% mouse serum in phosphate-buffered saline, read-out: Stability
# [7] = Drug level in mouse blood at 1000 nmol/kg/day dosed as continuous administration for 3 days; type: ADME, organism-based; settings: whole blood, read-out: Drug uptake
# [8] = Stability in C57BL/6J mouse serum assessed as residual parent compound remaining at 1 mM after 2 hrs at 37 degC by HPLC method; type: ADME, cell-free; settings: read-out: Stability
# [9] = Stability in C57BL/6J mouse serum assessed as residual parent compound remaining at 1 mM after 4 hrs at 37 degC by HPLC method; type: ADME, cell-free; settings: read-out: Stability
# Mus musculus [10] = experiment: Increase in cGMP production C57BL/6J mouse blood at 1 umol/kg/day, sc administered via infusion from implanted osmotic pumps for 7 days by enzyme immunoassay; type: functional, organism-based
# [11] = target: T3, Atrial natriuretic peptide receptor 3 (Mus musculus) (UniProt P70180); experiment: Activity at NPR-3 in C57BL/6J mouse primary adipocytes assessed as increase in mANP-stimulated cGMP production at 1 uM pre-incubated for 30 mins before mANP stimulation for 15 mins by enzyme immunoassay; type: cell-based
# T3 sequence (whole entry): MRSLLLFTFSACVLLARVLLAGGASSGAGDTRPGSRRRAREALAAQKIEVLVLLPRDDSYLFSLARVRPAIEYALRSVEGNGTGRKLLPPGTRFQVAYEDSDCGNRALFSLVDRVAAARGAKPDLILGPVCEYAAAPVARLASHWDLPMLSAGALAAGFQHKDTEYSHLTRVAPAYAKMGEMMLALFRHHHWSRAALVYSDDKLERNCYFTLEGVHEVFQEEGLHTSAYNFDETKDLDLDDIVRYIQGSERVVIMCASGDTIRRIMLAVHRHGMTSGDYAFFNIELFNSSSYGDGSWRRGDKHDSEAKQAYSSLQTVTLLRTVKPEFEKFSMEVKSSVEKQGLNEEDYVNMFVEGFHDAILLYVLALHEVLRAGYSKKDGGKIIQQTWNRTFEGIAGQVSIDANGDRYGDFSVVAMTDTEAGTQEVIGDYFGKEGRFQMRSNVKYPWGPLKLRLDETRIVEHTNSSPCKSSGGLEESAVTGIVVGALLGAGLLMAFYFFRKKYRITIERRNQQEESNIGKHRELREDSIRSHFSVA
# [12] = Drug level in mouse blood at 300 nmol/kg/day dosed as continuous administration for 3 days; type: ADME, organism-based; settings: whole blood, read-out: Drug uptake
# Mus musculus [13] = experiment: Increase in cGMP production C57BL/6J mouse blood at 1 umol/kg/day, sc administered via infusion from implanted osmotic pumps for 7 days and co-dosed with 1 umol/kg/day mANP by enzyme immunoassay; type: functional, organism-based
# Serum = experiment: Stability in C57BL/6J mouse serum at 1 mM up to 4 hrs at 37 degC by HPLC method; type: ADME, cell-free; settings: 1000 µM
Compound,IC50 [1] [nM],"remaining at 0.5 h, 1000 µM [2] [%]","remaining at 1 h, 1000 µM [3] [%]",IC50 [4] [nM],"remaining at 0.5 h, 1000 µM [5] [%]","remaining at 1 h, 1000 µM [6] [%]",concentration at 72 h [7] [nM],"remaining at 2 h, 1000 µM [8] [%]","remaining at 4 h, 1000 µM [9] [%]",Activity (Mus musculus [10]),Activity [11],concentration at 72 h [12] [nM],Activity (Mus musculus [13]),Stability (Serum)
CC[C@H](C)[C@H](NC(=O)[C@H](CCCNC(=N)N)NC(=O)[C@H](CC(=O)O)NC(=O)[C@@H](NC(=O)[C@@H]1CCCN1C(=O)CNC(=O)[C@@H](C)NC(=O)[C@H](CC1CCCCC1)NC(=O)[C@H]1CCCN1C(=O)[C@H](CO)NC(=O)[C@@H](Cc1ccccc1)NC(C)=O)[C@@H](C)CC)C(N)=O,0.054,81,68,> 1000,,,,,,,,,,
CC[C@H](C)[C@@H]1NC(=O)[C@H](CCCNC(=N)N)NC(=O)[C@H](CC(=O)O)NC(=O)[C@H]([C@@H](C)CC)NC(=O)[C@H](CCCNC(=N)N)NC(=O)CNC(=O)CNC(=O)[C@H](Cc2ccccc2)NC(=O)[C@@H](NC(=O)[C@H](CO)NC(=O)[C@H](CO)NC(=O)[C@@H](N)CCCNC(=N)N)CSSC[C@@H](C(=O)O)NC(=O)[C@H](C)NC(=O)CNC1=O (H-RSSCFGGRIDRIGAC-OH; disulfide 4-15),0.51,,,> 1000,4,2,,,,,,,,
CC[C@H](C)[C@H](NC(=O)[C@H](CCCNC(=N)NC)NC(=O)[C@H](CC(=O)O)NC(=O)[C@@H](NC(=O)[C@@H]1CCCN1C(=O)CNC(=O)[C@@H](C)NC(=O)[C@H](CC1CCCCC1)NC(=O)[C@H]1CCCN1C(=O)[C@H](CO)NC(=O)[C@@H](Cc1ccccc1)NC(C)=O)[C@@H](C)CC)C(=O)NC,0.14,91,84,> 1000,,,13.7,77,62,,,,,
CC[C@H](C)[C@H](NC(=O)[C@H](CCCNC(=N)N)NC(=O)[C@H](CC(=O)O)NC(=O)[C@@H](NC(=O)[C@@H]1CCCN1C(=O)CNC(=O)[C@@H](C)NC(=O)[C@H](CC1CCCCC1)NC(=O)[C@H]1CCCN1C(=O)[C@H](CO)NC(=O)[C@@H](Cc1ccccc1)NC(C)=O)[C@@H](C)CC)C(=O)NC,0.087,86,74,> 1000,,,,,,,,,,
CC[C@H](C)[C@H](NC(=O)[C@H](CCCNC(=N)NC)NC(=O)[C@H](CC(=O)O)NC(=O)[C@@H](NC(=O)[C@@H]1C[C@@H](O)CN1C(=O)CNC(=O)[C@@H](CO)NC(=O)[C@H](CC1CCCCC1)NC(=O)[C@H]1C[C@H](O)CN1C(=O)[C@H](CO)NC(=O)[C@@H](Cc1ccccc1)NC(=O)CO)[C@@H](C)CC)C(=O)NC,0.079,,,> 1000,,,40.5,107,92,Active,Active,10.1,Active,
CC[C@H](C)[C@H](NC(=O)[C@H](CCCNC(=N)N)NC(=O)[C@H](CC(=O)O)NC(=O)[C@@H](NC(=O)[C@H](CCCNC(=N)N)NC(=O)CNC(=O)CNC(=O)[C@H](CC1CCCCC1)NC(=O)CNC(=O)[C@H](CO)NC(=O)[C@H](N)Cc1ccccc1)[C@@H](C)CC)C(=O)NCC(N)=O,0.12,,,> 1000,100,80,,,,,,,,
CC[C@H](C)[C@H](NC(=O)[C@H](CCCNC(=N)N)NC(=O)[C@H](CC(=O)O)NC(=O)[C@@H](NC(=O)[C@H](CCCNC(=N)N)NC(=O)CNC(=O)CNC(=O)[C@H](CC1CCCCC1)NC(=O)CNC(=O)[C@H](CO)NC(=O)[C@H](Cc1ccccc1)NC(=O)[C@H](CO)NC(=O)[C@@H](N)CCCNC(=N)N)[C@@H](C)CC)C(=O)NCC(N)=O (H-RSFSG[Cha]GGRIDRIG-NH2),0.3,,,> 1000,5,0,,,,,,,,
CC[C@H](C)[C@H](NC(=O)[C@H](CCCNC(=N)NC)NC(=O)[C@H](CC(=O)O)NC(=O)[C@@H](NC(=O)[C@@H]1C[C@@H](O)CN1C(=O)CNC(=O)[C@@H](C)NC(=O)[C@H](CC1CCCCC1)NC(=O)[C@H]1C[C@H](O)CN1C(=O)[C@H](CO)NC(=O)[C@@H](Cc1ccccc1)NC(C)=O)[C@@H](C)CC)C(=O)NC,0.099,,,> 1000,,,,100,102,,,,,Stable
CC[C@H](C)[C@H](NC(=O)[C@H](CCCNC(=N)N)NC(=O)[C@H](CC(=O)O)NC(=O)[C@@H](NC(=O)[C@H](CCCNC(=N)N)NC(=O)CNC(=O)CNC(=O)[C@H](CC1CCCCC1)NC(=O)CNC(=O)[C@H](CO)NC(=O)[C@@H](N)Cc1ccccc1)[C@@H](C)CC)C(=O)NCC(N)=O,1.2,,,> 1000,1.4,0,,,,,,,,
